Molecular target: T1, Receptor-interacting serine/threonine-protein kinase 1 (Homo sapiens, UniProt Q13546)
T1 sequence (Q13546 whole entry): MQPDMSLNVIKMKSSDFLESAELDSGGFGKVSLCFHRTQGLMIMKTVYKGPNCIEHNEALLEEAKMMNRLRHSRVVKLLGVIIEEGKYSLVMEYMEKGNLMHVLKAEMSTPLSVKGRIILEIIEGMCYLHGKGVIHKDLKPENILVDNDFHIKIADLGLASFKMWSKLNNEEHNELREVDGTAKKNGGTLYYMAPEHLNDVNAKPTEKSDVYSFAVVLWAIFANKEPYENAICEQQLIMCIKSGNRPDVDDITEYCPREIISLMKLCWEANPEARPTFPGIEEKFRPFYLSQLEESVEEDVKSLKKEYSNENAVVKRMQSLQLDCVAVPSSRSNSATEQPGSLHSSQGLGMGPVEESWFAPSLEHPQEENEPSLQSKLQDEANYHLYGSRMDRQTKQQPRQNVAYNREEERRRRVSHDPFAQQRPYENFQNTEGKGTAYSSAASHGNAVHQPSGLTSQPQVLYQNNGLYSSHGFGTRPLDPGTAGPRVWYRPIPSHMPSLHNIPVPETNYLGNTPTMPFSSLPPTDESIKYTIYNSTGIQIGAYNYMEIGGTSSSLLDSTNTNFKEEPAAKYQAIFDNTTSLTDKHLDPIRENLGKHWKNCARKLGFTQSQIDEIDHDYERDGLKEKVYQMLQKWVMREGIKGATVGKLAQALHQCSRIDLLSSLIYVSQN
Assay: ADP-Glo Kinase Assay
Procedure: In order to measure RIPK1 activity the ADP-Glo kinase assay (Promega, Catalog #V7002) was used to measure the conversion of ATP to ADP. […] Stock solutions of the test compounds were prepared in 100% DMSO (Sigma, Catalog #D2650) and serially diluted 1:3 using 100% DMSO. Compounds were additionally diluted 1:40 in assay buffer, and 2 μL/well were transferred to the assay plate. 4 μL/well (final concentration of 5 nM) of RIPK1 protein (SignalChem, Catalog #R07-1IG-05) diluted in assay buffer and added to the assay plate followed by a 10 minute preincutation at rt. 4 μL/well of ATP (Promega, Catalog #V7002) (final concentration of 50 μM) diluted in assay buffer were then added to the assay plate followed by a 6 h reaction time. Final concentrations of RIPK1 and ATP refer to a 10 μL volume. Luminescence was measured using a BioTek Synergy™ NEO plate reader. IC50 values were calculated using a four-parameter logistic curve fit using Genedata Screener software.

Which IC50 does the source give for `O=C(N1N=CCC1c1cc(F)cc(F)c1)C12CC(Cn3ncc4ncccc43)(C1)C2` (stereo unspecified) [US20250214942, Example 148] here?
The IC50 was 80 nM.

— BindingDB's records for patent US20250214942 (University ff Texas System, 2025)
